Tests used:
Assay type in all cases: in vivo
[1] = tested on: barnyardgrass (Echinochloa crus-galli, ECHCG); assay: Pre-emerge test, greenhouse herbicide activity screening; conditions: phytotoxicity rating 0-100, 14 days after application
How it was run: (§1)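 Sandy loam pots; pre-emerge: sown 1 d pre-spray, surface-watered after, then bottom-watered. Post-emerge: sown 8–21 d before, 2–3 leaf stage, + 0.25% v/v NIS, bottom-watered. Acetone, 187 l/ha track spray, 15–1000 g ai/ha. 0–100 injury score, day 14.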

[2] = tested on: velvetleaf (Abutilon theophrasti, ABUTH); assay: as above; conditions: phytotoxicity rating 0-100, 14 days after application
How it was run: as §1

[3] = tested on: large crabgrass (Digitaria sanguinalis, DIGSA); assay: as above; conditions: phytotoxicity rating 0-100, 14 days after application
How it was run: as §1

[4] = tested on: lambsquarters (Chenopodium album, CHEAL); assay: as above; conditions: phytotoxicity rating 0-100, 14 days after application
How it was run: as §1

[5] = tested on: johnsongrass (Sorghum halepense, SORHA); assay: as above; conditions: phytotoxicity rating 0-100, 14 days after application
How it was run: as §1

[6] = tested on: sicklepod (Cassia obtusifolia, CASOB); assay: as above; conditions: phytotoxicity rating 0-100, 14 days after application
How it was run: as §1

[7] = tested on: ivyleaf morningglory (Ipomoea hederacea, IPOHE); assay: as above; conditions: phytotoxicity rating 0-100, 14 days after application
How it was run: as §1

[8] = tested on: common ragweed (Ambrosia artemisizfolia L., AMBEL); assay: as above; conditions: phytotoxicity rating 0-100, 14 days after application
How it was run: as §1

[9] = tested on: green foxtail (Setaria viridis, SETVI); assay: as above; conditions: phytotoxicity rating 0-100, 14 days after application
How it was run: as §1

[10] = tested on: redroot pigweed (Amaranthus retroflexus, AMARE); assay: as above; conditions: phytotoxicity rating 0-100, 14 days after application
How it was run: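 Herbicidal damage is scored 0 (none) to 100 (complete plant death) two weeks after a simulated field spray. Rates span 15–1000 g ai/ha, delivered in acetone at 187 l/ha. For post-emergence treatments, plants have 2–3 leaves and the spray carries 0.25% v/v non-ionic surfactant.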

[11] = tested on: barnyardgrass (Echinochloa crus-galli, ECHCG); assay: Post-emerge test, greenhouse herbicide activity screening; conditions: post-emerge, 14 days after application, rating scale 0-100
How it was run: (§2)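 Compounds in acetone were track-sprayed at 187 l/ha, 15–1000 g ai/ha, onto sandy loam pots. Pre-emerge seeds were sown one day before spraying, with surface watering afterwards. Post-emerge plants were at the 2–3 leaf stage and sprayed with 0.25% v/v non-ionic surfactant. Injury was rated 0–100 at 14 days.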

[12] = tested on: redroot pigweed (Amaranthus retroflexus, AMARE); assay: as above; conditions: post-emerge, 14 days after application
How it was run: as §2

[13] = tested on: velvetleaf (Abutilon theophrasti, ABUTH); assay: as above; conditions: post-emerge, 14 days after application, rating scale 0-100
How it was run: as §2

[14] = tested on: large crabgrass (Digitaria sanguinalis, DIGSA); assay: as above; conditions: post-emerge, 14 days after application, rating scale 0-100
How it was run: as §2

[15] = tested on: lambsquarters (Chenopodium album, CHEAL); assay: as above; conditions: post-emerge, 14 days after application, rating scale 0-100
How it was run: as §2

[16] = tested on: johnsongrass (Sorghum halepense, SORHA); assay: as above; conditions: post-emerge, 14 days after application, rating scale 0-100
How it was run: as §2

[17] = tested on: sicklepod (Cassia obtusifolia, CASOB); assay: as above; conditions: post-emerge, 14 days after application, rating scale 0-100
How it was run: as §2

[18] = tested on: ivyleaf morningglory (Ipomoea hederacea, IPOHE); assay: as above; conditions: post-emerge, 14 days after application, rating scale 0-100
How it was run: as §2

[19] = tested on: green foxtail (Setaria viridis, SETVI); assay: as above; conditions: post-emerge, 14 days after application, rating scale 0-100
How it was run: as §2

[20] = tested on: upland rice (Oryza sp., var. Tebonnet, RICE); assay: Post-emerge test, crop safety; conditions: post-emerge, 14 days after application, rating scale 0-100
How it was run: as §1

[21] = tested on: field corn (Zea mays L., var. Dekalb 535, CORN); assay: Post-emerge test, crop safety; conditions: post-emerge, 14 days after application, rating scale 0-100
How it was run: as §1

[22] = tested on: upland rice (Oryza sp., var. Tebonnet, RICE); assay: Pre-emerge test, crop safety; conditions: crop damage rating 0-100, 14 days after application
How it was run: (§3)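 Plants grown in 10 cm pots of sandy loam mix received acetone-dissolved compounds through a moving flat-fan nozzle. Doses ranged from 15 to 1000 g ai/ha. Pre-emerge pots were seeded one day earlier, post-emerge pots 8–21 days earlier. Fourteen days on, each pot was graded 0–100 for damage.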

[23] = tested on: field corn (Zea mays L., var. Dekalb 535, CORN); assay: Pre-emerge test, crop safety; conditions: crop damage rating 0-100, 14 days after application
How it was run: as §3

## Cn1c(C(F)(F)F)cc(=O)n(-c2c(F)cc(Cl)c(OCC#N)c2NC(=O)c2ccc3ccccc3c2)c1=O [2-200]
[1]; 63 g ai/ha
  Pre-emerge Herbicidal Activity ECHCG: 99
[1]; 250 g ai/ha
  Pre-emerge Herbicidal Activity ECHCG: 100
[2]; 63 g ai/ha
  Pre-emerge Herbicidal Activity ABUTH: 100
[2]; 250 g ai/ha
  Pre-emerge Herbicidal Activity ABUTH: 100
[3]; 63 g ai/ha
  Pre-emerge Herbicidal Activity DIGSA: 100
[3]; 250 g ai/ha
  Pre-emerge Herbicidal Activity DIGSA: 100
[4]; 63 g ai/ha
  Pre-emerge Herbicidal Activity CHEAL: 100
[4]; 250 g ai/ha
  Pre-emerge Herbicidal Activity CHEAL: 100
[5]; 63 g ai/ha
  Pre-emerge Herbicidal Activity SORHA: 100
[5]; 250 g ai/ha
  Pre-emerge Herbicidal Activity SORHA: 100
[6]; 63 g ai/ha
  Pre-emerge Herbicidal Activity CASOB: 80
[6]; 250 g ai/ha
  Pre-emerge Herbicidal Activity CASOB: 100
[7]; 63 g ai/ha
  Pre-emerge Herbicidal Activity IPOHE: 100
[7]; 250 g ai/ha
  Pre-emerge Herbicidal Activity IPOHE: 100
[8]; 63 g ai/ha
  Pre-emerge Herbicidal Activity AMBEL: 100
[8]; 250 g ai/ha
  Pre-emerge Herbicidal Activity AMBEL: 100
[9]; 63 g ai/ha
  Pre-emerge Herbicidal Activity SETVI: 100
[9]; 250 g ai/ha
  Pre-emerge Herbicidal Activity SETVI: 100
[10]; 63 g ai/ha
  Pre-emerge Herbicidal Activity AMARE: 100
[10]; 250 g ai/ha
  Pre-emerge Herbicidal Activity AMARE: 100
[11]; 63 g ai/ha
  phytotoxicity rating ECHCG: 0
[11]; 250 g ai/ha
  phytotoxicity rating ECHCG: 0
[12]; 63 g ai/ha, rating scale 0-100 (0 no damage, 100 complete death)
  phytotoxicity rating AMARE: 100
[12]; 250 g ai/ha, rating scale 0-100
  phytotoxicity rating AMARE: 100
[13]; 63 g ai/ha
  phytotoxicity rating ABUTH: 100
[13]; 250 g ai/ha
  phytotoxicity rating ABUTH: 100
[14]; 63 g ai/ha
  phytotoxicity rating DIGSA: 0
[14]; 250 g ai/ha
  phytotoxicity rating DIGSA: 0
[15]; 63 g ai/ha
  phytotoxicity rating CHEAL: 100
[15]; 250 g ai/ha
  phytotoxicity rating CHEAL: 100
[16]; 63 g ai/ha
  phytotoxicity rating SORHA: 0
[16]; 250 g ai/ha
  phytotoxicity rating SORHA: 0
[17]; 63 g ai/ha
  phytotoxicity rating CASOB: 100
[17]; 250 g ai/ha
  phytotoxicity rating CASOB: 100
[18]; 63 g ai/ha
  phytotoxicity rating IPOHE: 100
[18]; 250 g ai/ha
  phytotoxicity rating IPOHE: 100
[19]; 63 g ai/ha
  phytotoxicity rating SETVI: 30
[19]; 250 g ai/ha
  phytotoxicity rating SETVI: 50
[20]; 63 g ai/ha
  phytotoxicity rating RICE (crop damage): 10
[20]; 250 g ai/ha
  phytotoxicity rating RICE (crop damage): 20
[21]; 63 g ai/ha
  phytotoxicity rating CORN (crop damage): 10
[21]; 250 g ai/ha
  phytotoxicity rating CORN (crop damage): 20
[22]; 63 g ai/ha
  Pre-emerge Herbicidal Activity RICE: 80
[22]; 250 g ai/ha
  Pre-emerge Herbicidal Activity RICE: 100
[23]; 63 g ai/ha
  Pre-emerge Herbicidal Activity CORN: 75
[23]; 250 g ai/ha
  Pre-emerge Herbicidal Activity CORN: 100

From US6355799B1, “Substituted benzene compounds, process for their preparation, and herbicidal and defoliant compositions containing them” (ISK Americas Incorporated, priority 1997, dated 2002)
